Strand notation (5' to 3'): a small letter for the sugar, then the base; units joined by * are phosphorothioate-linked, units joined directly phosphodiester-linked; [ ] holds rarer units or linkages, { } end groups; capitals alone tell only the bases. l = locked nucleic acid (LNA); [5mC] = 5-methylcytosine; d = 2'-deoxy (DNA)
How the values were obtained:
miR-122 = assay: microRNA specific northern blot of mouse liver RNA; type: in vivo
Description: We decided to assess the effect of SEQ ID NO:63 on miR-122 miRNA levels in the livers of SEQ ID NO: 63-treated mice. The LNA-antimiRs SEQ ID NO:63 and SEQ ID NO: 61 were administered into mice by three i.p. injections on every second day over a six-day-period at indicated doses followed by sacrificing the animals 48 hours after the last dose. Total RNA was extracted from the livers. miR-122 levels were assessed by microRNA specific northern blot (FIG. 6)
The liver RNA was also subjected to microRNA Northern blot. Shown in FIG. 13 is a membrane probed with a miR-122a specific probe (upper panel) and re-probed with a Let-7 specific probe (lower panel). With the miR-122 probe, two bands could be detected, one corresponding to mature miR-122 and one corresponding to a duplex between SEQ ID NO: 61 and miR-122.
Preparation of northern membranes was done as described in Sempere et al. 2002, except for the following changes: Total RNA, 10 μg per lane, in formamide loading buffer (47.5% formamide, 9 mM EDTA, 0.0125% Bromophenol Blue, 0.0125% Xylene Cyanol, 0.0125% SDS) was loaded onto a 15% denaturing Novex TBE-Urea polyacrylamide gel (Invitrogen) without preheating the RNA. The RNA was electrophoretically transferred to a GeneScreen plus Hybridization Transfer Membrane (PerkinElmer) at 200 mA for 35 min. Membranes were probed with 32P-labelled LNA-modified oligonucleotides complimentary to the mature microRNAs*. The LNA oligonucleotides were labelled and hybridized to the membrane as described in (Válóczi et al. 2004) except for the following changes: The prehybridization and hybridization solutions contained 50% formamide, 0.5% SDS, 5×SSC, 5×Denhardt's solution and 20 μg/ml sheared denatured herring sperm DNA. Hybridizations were performed at 45° C. The blots were visualized by scanning in a Storm 860 scanner. The signal of the background membrane was subtracted from the radioactive signals originating from the miRNA bands. The values of the miR-122 signals were corrected for loading differences based on the let-7a signal. […]

miR-122a [1] = assay: Plasma cholesterol in LNA anti-miR122 treated mice; type: in vivo, mouse; conditions: Day 6; i.p. on day 0, 2 and 4
Description: In vivo study: Ten groups of animals (female C57/BL6; 3 mice per group) were treated in the following manner. Group 1 animals were injected with 0.2 ml saline by i.p. on day 0, day 2 and day 4. Groups 2-10 were dosed by i.p. with three different conc. (25 mg/kg, 5 mg/kg and 1 mg/kg) of either LNA antimiR-122a/SEQ ID NO: 61 (group 2-4), LNA antimir-122a/SEQ ID NO: 66 (group 5-7) or LNA antimir-122a/SEQ ID NO: 63 (group 8-10); the LNA antimir-122a sequences are given in the Table 1. All three LNA antimiR-122a oligonucleotides target the liver-specific miR-122a. The doses were calculated from the Day 0 body weights of each animal.
The animals were sacrificed 48 hours after last dose (Day 6), retro-orbital blood was collected in tubes containing EDTA and the plasma fraction harvested and stored frozen −80° C. for cholesterol analysis. At sacrifice livers were dissected and one portion was cut into 5 mm cubes and immersed in 5 volumes of ice-cold RNAlater. […]
Total cholesterol level was measured in plasma using a colometric assay Cholesterol CP from ABX Pentra. Cholesterol was measured following enzymatic hydrolysis and oxidation (2,3). […] 250 μl reagent was added and within 5 min the cholesterol content measured at a wavelength of 540 nm. […] The cholesterol level was determined by subtraction of the background and presented relative to the cholesterol levels in plasma of saline treated mice.

miR-122a [2] = assay: miR-122a level in transfected Huh-7 cells by miR-122a specific qRT-PCR; type: cell-based, human; conditions: transfected at 1 and 100 nM, 24 hours after transfection
Description: The miR-122a expressing cell line Huh-7 was transfected with LNA anti-miR5 at 1 and 100 nM concentrations according to optimized lipofectamine 2000 (LF2000, Invitrogen) protocol (as follows).
Huh-7 cells were cultivated in Eagles MEM with 10% FBS, 2 mM Glutamax I, 1× non-essential amino acids, Gentamicin 25 μg/ml. The cells were seeded in 6-well plates (300000 cells per well), in a total vol. of 2.5 ml the day before transfection. At the day of transfection a solution containing LF2000 diluted in Optimem (Invitrogen) was prepared (1.2 ml optimem+3.75 μl LF2000 per well, final 2.5 μg LF2000/ml, final tot vol 1.5 ml).
LNA Oligonucleotides (LNA anti-miRs) were also diluted in optimem. 285 μl optimem+15 μl LNA oligonucleotide (10 μM oligonucleotide stock for final concentration 100 nM and 0.1 μM for final concentration 1 nM) Cells were washed once in optimem then the 1.2 ml optimem/LF2000 mix were added to each well. Cells were incubated 7 min at room temperature in the LF2000 mix where after the 300 μl oligonucleotide optimem solution was added. […]
miR-122a levels in the RNA samples were assessed on an ABI 7500 Fast real-time PCR instrument (Applied Biosystems, USA) using a miR-122a specific qRT-PCR kit, mirVana (Ambion, USA) and miR-122a primers (Ambion, USA). […]

Substance	mature miR-122, small RNA northern blot (in words) (miR-122; liver RNA, let-7a control not altered)	plasma cholesterol compared to saline control (in words) (miR-122a [1])	inhibition of miR-122a (in words) (miR-122a [2])	blocking of miR-122, northern blot (in words) (miR-122; three i.p. injections every second day, 5 and 25 mg/kg, 48 hours after last dose)	duplex versus mature band on northern blot, comparison (in words) (miR-122; three i.p. injections every second day, 48 hours after last dose)
5′-ccAttGtcAcaCtcCa-3′ (antisense CCATTGTCACACTCCA; sugars from the 5' end ddlddlddlddlddld, backbone and methylation of C not given here) [SEQ ID NO: 61]	significantly reduced levels of detectable mature miR-122				
5′-AttGTcaCaCtCC-3′ (antisense lA*dT*dT*lG*lT*dC*dA*l[5mC]*dA*l[5mC]*dT*l[5mC]*l[5mC]) [SEQ ID NO: 66]		markedly lowered level of plasma cholesterol			
5′-CcAttGTcaCaCtCC-3′ (antisense CCATTGTCACACTCC; sugars from the 5' end ldlddllddldldll, backbone and methylation of C not given here) [SEQ ID NO: 63]		markedly lowered level of plasma cholesterol	more efficient in inhibiting miR-122a at 1 nM	completely blocked miR-122	equally efficient at 1 mg/kg as SEQ ID NO: 61SEQ ID NO: 61 at 25 mg/kg

Reference: patent US8440637B2, “Combination treatment for the treatment of hepatitis C virus infection” (priority 2007, dated 2013)
